Results published in patent US20140193529A1, “Modulation of Thymosin Beta-4 in Skin” (AVON PRODUCTS, INC., priority 2013, published 2014).

Columns and labels:
[1] = test system: thymosin beta-4 (TMSB4X) mRNA; test: Thymosin beta-4 stimulation assay (QUANTIGENE multiplex mRNA assay); assay type: cell-based; conditions: human dermal fibroblasts, 24 hours
Method: Normal human dermal fibroblasts were cultured in 96-well tissue culture-treated plates, containing appropriate culture medium. Stock solutions of actives were made in an appropriate vehicle (water or DMSO). Cells were treated with test material or respective vehicle control diluted in growth medium for 24 hours in a humidified 37° C. incubator with 10% CO2. After incubation, growth medium from each plate was removed and 100 μL, of lysis buffer was added to the wells and placed in 37° C. incubator with 10% CO2 for 30 minutes. At the end of incubation, the cell lysates were collected in freezer plates and placed in −80° C. freezer until analysis. Changes in mRNA for thymosin beta-4 (TMSB4X) after treatment were analyzed using Affymetrix's QUANTIGENE® multiplex assay that employs a branched DNA signal amplification technology, following the manufacturer's instructions (Affymetrix, Calif.). Percent increase in mRNA for thymosin beta-4 (TMSB4X) was calculated by comparing the test results to the control. The percent up-regulation is converted to a scaled score as shown below in Table 2.
A variety of botanical extracts were tested for the ability to up-regulate Thymosin beta-4 according to the method of Example 1. The concentrations of each extract are provided based on the dry weight of the given plant extract, by which is meant the weight of the extract after volatile extraction solvents have been removed. The cells tested were primary human dermal fibroblasts.
Synthetic compounds 1-4 were also tested as active agents for the ability to upregulate thymosin beta-4 according to the method of Example 1.

thymosin beta-4 = test: Mode of operation of retinol in human skin
[2] = test system: IL-8 gene and protein expression; test: Anti-inflammatory effect of TB-4 in TNF-alpha treated human dermal fibroblasts (qPCR, ELISA, PCR array); assay type: cell-based
Method: Commercially obtained human dermal fibroblasts were treated with tumor necrosis factor alpha for 6 hours to induce inflammation. Cells were either pre-treated with recombinant TB-4 or control media to assess its anti-inflammatory effect. Cell lysates and media were collected and qPCR and ELISA were performed to assess IL-8 gene and protein expression. Human cytokines and chemokines PCR array was also performed to investigate the impact of TB-4 on the expression profile of key secreted proteins in the inflammation pathway. […] Therefore, modulating endogenous TB-4 could be adopted as an avenue to battle inflammatory skin damage resulting from skin chronological aging and photoaging.

CCOCCCNC(=O)c1cc(NC(=O)/C=C/c2ccccc2)ccc1N1CCC(Cc2ccccc2)CC1 [Compound 1]
Thymosin beta-4 (TMSB4X) Degree of Upregulation ([1]; compound Conc. 0.001%): ++ (41-60)

Cc1ccc(C(=O)CC(NCc2ccccc2)C(=O)O)cc1 (stereo not shown) [Compound 2]
Thymosin beta-4 (TMSB4X) Degree of Upregulation ([1]; compound Conc. 0.0001%): + (21-40)

CCc1c(C(=O)N2CCCC2)cnn1-c1ccccc1Cl [Compound 4]
Thymosin beta-4 (TMSB4X) Degree of Upregulation ([1]; compound Conc. 0.00001%): + (21-40)

CC1=C(/C=C/C(C)=C/C=C/C(C)=C/CO)C(C)(C)CCC1 [retinol]
upregulation of thymosin beta-4 (thymosin beta-4): potent upregulator

TB-4: recombinant thymosin beta-4, 43 amino acid peptide, 4.9 kDa (SDKPDMAEIEKFDKSKLKKTETQEKNPLPSKETIEQEKQAGES; UniProt P62328 2-44, looked up)
regulation of key cytokines and chemokines genes ([2]; human cytokines and chemokines PCR array, TNF-alpha treated fibroblasts): significantly regulates
suppression of IL-8 protein secretion caused by TNF-alpha stimulation ([2]; pre-treatment with recombinant TB-4, TNF-alpha 6 hours, ELISA): greater than 50%
suppression of IL-8 gene expression caused by TNF-alpha stimulation ([2]; pre-treatment with recombinant TB-4, TNF-alpha 6 hours, qPCR): greater than 50%
